From patent US12098148B2, “Therapeutic compounds” (C4X Discovery Limited, priority 2018, dated 2024)
Read-outs that look alike come from different tables or passages of the source.

Columns and labels:
[1] = system: NQO1 mRNA in BEAS-2B cells; experiment: Beas2B NQO1 mRNA cell based assay; parameters: species or system human; conditions: 24 h compound treatment, increase in NQO1 mRNA vs vehicle (0.1% DMSO), read-out: EC50
Method: Beas2B NQO1 mRNA Cell Based Assay
The up regulation of the NRF2 mediated gene NAD(P)H:quinone acceptor oxidoreductase 1 (NQO1) was measured using the following assay method: BEAS-2B cells (ATCC CRL-9609) were plated in 96-well clear plates at 20,000 cells/well in 75 μL of cell culture media and incubated overnight (37° C., 5% CO2). On day 2, 25 μL of compound or controls were added to the cells for 24 h. On day 3, the medium was aspirated from the plate and the Cells-to-CT™ 1-Step TaqMan® Kit (Ambion A25603) was used to perform expression analysis directly from cultured cells without RNA purification according to the manufacturer's instructions.
Briefly, cells were washed with ice cold PBS and 22.5 μL of room-temperature DNase/Lysis solution was added to the cells and incubated at room temperature for 5 minutes. To stop the reaction, 2.25 μL of stop solution was added to the cell lysate. The samples were diluted 1:5 using nuclease free water and 2.5 μL transferred into the PCR plate. Real-time PCR was performed using the C-1000 Thermal Cycler (Bio-Rad) using human beta actin as the internal control. The cDNA was amplified with a specific primer for NQO1 using the 1-step RT-PCR master mix (Ambion Cells-to-CT™ 1-Step TaqMan® Kit A25603). The primers/probes sets that were used for amplification of cDNA were obtained from TaqMan Gene Expression Assays (Applied Biosystems). The comparative CT (ΔΔCT) relative quantification method was used to calculate the relative mRNA level of the target gene NQO1 as described in the Applied Biosystems Chemistry Guide.

[2] = biological target: human KEAP1 (N-term, residues 321-609) (Homo sapiens, UniProt Q14145); experiment: biochemical;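 note: fluorescence polarization competition assay of Kelch domain binding to NRF2, 12-point 1:3 dilution series from 10 µM, read after 1 h at room temperature, floor 10 nM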
Chain of human KEAP1 (N-term, residues 321-609) (Q14145 321-609): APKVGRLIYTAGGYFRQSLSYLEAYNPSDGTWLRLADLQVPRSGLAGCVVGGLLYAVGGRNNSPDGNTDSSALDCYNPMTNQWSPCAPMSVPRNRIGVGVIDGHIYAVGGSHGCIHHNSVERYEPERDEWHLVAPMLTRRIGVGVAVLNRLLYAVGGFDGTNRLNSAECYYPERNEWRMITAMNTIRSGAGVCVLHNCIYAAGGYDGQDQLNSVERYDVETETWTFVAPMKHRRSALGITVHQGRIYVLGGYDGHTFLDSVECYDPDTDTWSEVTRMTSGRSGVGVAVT

IC50 [2] [nM]	SMILES	EC50 ([1]; Homo sapiens, BEAS-2B, 24 h) [nM]	EC50 [1] [nM]
37	CC(Oc1ccc(Br)c2c1[C@@H](CN1Cc3ccccc3C1=O)N(C(=O)[C@@H]1CCCC[C@@H]1C(=O)O)CC2)c1cn(C(C)C)nn1 (single isomer, unassigned) [Example 46]	60	–
68	CC(Oc1ccc(Br)c2c1[C@@H](CN1Cc3ccccc3C1=O)N(C(=O)[C@@H]1CCCC[C@@H]1C(=O)O)CC2)c1cn(C(C)C)nn1 (single isomer, unassigned) [Example 47]	–	76
16	CC1CCN(C[C@@H]2c3c(OCc4cn(C(C)C)nn4)ccc(Br)c3CCN2C(=O)[C@@H]2CCCC[C@@H]2C(=O)O)C1=O (single isomer, unassigned) [Example 73]	–	130
6.8	CC1CCN(C[C@@H]2c3c(OCc4cn(C(C)C)nn4)ccc(Br)c3CCN2C(=O)[C@@H]2CCCC[C@@H]2C(=O)O)C1=O (single isomer, unassigned) [Example 74]	–	22
5.7	Cn1nnc(COc2ccc(Cl)c3c2[C@@H](CN2CC(C(F)(F)F)CC2=O)N(C(=O)[C@@H]2CCCC[C@]2(C)C(=O)O)CC3)c1C(F)F (single isomer, unassigned) [Example 212]	1.9	–
5.2	Cn1nnc(COc2ccc(Cl)c3c2[C@@H](CN2CC(C(F)(F)F)CC2=O)N(C(=O)[C@@H]2CCCC[C@]2(C)C(=O)O)CC3)c1C(F)F (single isomer, unassigned) [Example 213]	–	2.2
6.4	Cn1nnc2c1CC(Oc1ccc(Cl)c3c1[C@@H](CN1CC4(CC4)CC1=O)N(C(=O)[C@@H]1CCCC[C@]1(C)C(=O)O)CC3)C2 (single isomer, unassigned; isomer 2) [Example 216]	–	110
12	Cc1cc(C(=O)NCCOc2cccc3c2[C@@H](CN2C(=O)c4ccccc4C2=O)N(C(=O)[C@@H]2CCCC[C@@H]2C(=O)O)CC3)no1 [Example 1, (1S,2R)-2-((S)-1-((1,3-Dioxoisoindolin-2-yl)methyl)-8-(2-(5-methylisoxazole-3-carboxamido)ethoxy)-1,2,3,4-tetrahydroisoquinoline-2-carbonyl)cyclohexanecarboxylic acid]	850	–
12	O=C(NCCOc1cccc2c1[C@@H](CN1C(=O)c3ccccc3C1=O)N(C(=O)[C@@H]1CCCC[C@@H]1C(=O)O)CC2)c1nc2ccccc2o1 [Example 2, (1S,2R)-2-((S)-8-(2-(Benzo[d]oxazole-2-carboxamido)ethoxy)-1-((1,3-dioxoisoindolin-2-yl)methyl)-1,2,3,4-tetrahydroisoquinoline-2-carbonyl)cyclohexane-1-carboxylic acid]	150	–
5.6	CC(=O)N1CC[C@H](Oc2cccc3c2[C@@H](CN2C(=O)c4ccccc4C2=O)N(C(=O)[C@@H]2CCCC[C@@H]2C(=O)O)CC3)C1 [Example 3, (1S,2R)-2-((S)-8-(((S)-1-Acetylpyrrolidin-3-yl)oxy)-1-((1,3-dioxoiso-indolin-2-yl)methyl)-1,2,3,4-tetrahydroisoquinoline-2-carbonyl)cyclohexane-1-carboxylic acid]	120	–
9	Cc1cc(C(=O)N2CC[C@H](Oc3cccc4c3[C@@H](CN3C(=O)c5ccccc5C3=O)N(C(=O)[C@@H]3CCCC[C@@H]3C(=O)O)CC4)C2)no1 [Example 4, (1S,2R)-2-((S)-1-((1,3-Dioxoisoindolin-2-yl)methyl)-8-(((S)-1-(5-methylisoxazole-3-carbonyl)pyrrolidin-3-yl)oxy)-1,2,3,4-tetrahydroisoquinoline-2-carbonyl)cyclohexane-1-carboxylic acid]	13	–

More lines, now with the values behind:

SMILES	IC50 [2] [nM]	EC50 ([1]; Homo sapiens, BEAS-2B, 24 h) [nM]	EC50 [1] [nM]
Cn1nnc2c1CC(Oc1ccc(Cl)c3c1[C@@H](CN1CC4(CC4)CC1=O)N(C(=O)[C@@H]1CCCC[C@]1(C)C(=O)O)CC3)C2 (single isomer, unassigned; isomer 1) [Example 215]	71	–	550
O=C(O)[C@H]1CCCC[C@H]1C(=O)N1CCc2c(Cl)ccc(OCc3noc4ccccc34)c2[C@H]1CN1CCCC1=O [Example 72, (1S,2R)-2-((S)-8-(Benzo[d]isoxazol-3-ylmethoxy)-5-chloro-1-((2-oxopyrrolidin-1-yl)methyl)-1,2,3,4-tetrahydroisoquinoline-2-carbonyl)cyclohexane-1-carboxylic acid]	–	2.8	–
O=C1CCCN1C[C@@H]1c2c(OCc3noc4ccccc34)ccc(Cl)c2CCN1C(=O)[C@@H]1CCCC[C@@H]1c1nn[nH]n1 [Example 81, 1-(((S)-2-((1R,2S)-2-(2H-tetrazol-5-yl)cyclohexane-1-carbonyl)-8-(benzo[d]isoxazol-3-ylmethoxy)-5-chloro-1,2,3,4-tetrahydroisoquinolin-1-yl)methyl)pyrrolidin-2-one]	–	260	–
C[C@@H]1CC(=O)N(C[C@@H]2c3c(OCc4nnn(C)c4C(F)(F)F)ccc(Cl)c3CCN2C(=O)[C@H]2CCCC[C@]2(C)C(=O)O)C1 [Example 133, (1S,2S)-2-((S)-5-chloro-1-(((R)-4-methyl-2-oxopyrrolidin-1-yl)methyl)-8((1-methyl-5-(trifluoromethyl)-1H-1,2,3-triazol-4-yl)methoxy)-1,2,3,4-tetrahydroisoquinoline-2-carbonyl)-1-methylcyclohexane-1-carboxylic acid]	–	20	–
C[C@]1(C(=O)O)CCCC[C@H]1C(=O)N1CCc2c(Cl)cc(F)c(OCc3nnn4c3CCCC4)c2[C@H]1CN1CC2(CC2)CC1=O [Example 144, (1S,2R)-2-((S)-5-chloro-7-fluoro-1-((6-oxo-5-azaspiro[2.4]heptan-5-yl)methyl)-8-((4,5,6,7-tetrahydro-[1,2,3]triazolo[1,5-a]pyridin-3-yl)methoxy)-1,2,3,4-tetrahydroisoquinoline-2-carbonyl)-1-methylcyclohexane-1-carboxylic acid]	–	0.022	–
Cn1nnc(COc2ccc(Cl)c3c2[C@@H](CN2CCCC2=O)N(C(=O)[C@@H]2CCCC[C@]2(C)c2nn[nH]n2)CC3)c1C(F)F [Example 151, 1-(((S)-5-chloro-8-((5-(difluoromethyl)-1-methyl-1H-1,2,3-triazol-4-yl)methoxy)-2-((1R,2S)-2-methyl-2-(2H-tetrazol-5-yl)cyclohexane-1-carbonyl)-1,2,3,4-tetrahydroisoquinolin-1-yl)methyl)pyrrolidin-2-one]	–	16	–
Cn1nnc(COc2ccc(Cl)c3c2[C@@H](CN2CC4(CC4)CC2=O)N(C(=O)[C@@H]2CCCC[C@@H]2C(=O)O)CC3)c1C(F)F [Example 197, (1S,2R)-2-((S)-5-Chloro-8-((5-(difluoromethyl)-1-methyl-1H-1,2,3-triazol-4-yl)methoxy)-1-((6-oxo-5-azaspiro [2.4]heptan-5-yl)methyl)-1,2,3,4-tetrahydroisoquinoline-2-carbonyl) cyclohexane-1-carboxylic acid]	–	0.51	–
Cn1nnc(COc2ccc(Cl)c3c2[C@@H](CN2CC4(CC4)CC2=O)N(C(=O)[C@@H]2CCCC[C@@H]2c2nnn[nH]2)CC3)c1C(F)F [Example 202, 5-(((S)-2-((1R,2S)-2-(1H-tetrazol-5-yl)cyclohexane-1-carbonyl)-5-chloro-8-((5-(difluoromethyl)-1-methyl-1H-1,2,3-triazol-4-yl)methoxy)-1,2,3,4-tetrahydroisoquinolin-1-yl)methyl)-5-azaspiro[2.4]heptan-6-one]	–	79	–
